Results from article PMC11062922 (Nature Chemical Biology, 2023).
Where two headings read alike, the source gives them in different places.

Key:
ACOX1 = biological target: T1, ACOX1 (Homo sapiens, UniProt Q15067); test: Kinobeads two-dose competition binding: ACOX1; settings: for CATDS: sheet CATDS matrix 2, Gene Name ACOX1;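 as to all read-outs here: competition of compounds with immobilized broad-spectrum kinase inhibitor beads in cell lysate at 100 and 1,000 nM, 45 min at 4 °C, bead-bound protein quantified by label-free MS versus DMSO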
T1 construct: endogenous in cells
T1 sequence (Q15067 1-660): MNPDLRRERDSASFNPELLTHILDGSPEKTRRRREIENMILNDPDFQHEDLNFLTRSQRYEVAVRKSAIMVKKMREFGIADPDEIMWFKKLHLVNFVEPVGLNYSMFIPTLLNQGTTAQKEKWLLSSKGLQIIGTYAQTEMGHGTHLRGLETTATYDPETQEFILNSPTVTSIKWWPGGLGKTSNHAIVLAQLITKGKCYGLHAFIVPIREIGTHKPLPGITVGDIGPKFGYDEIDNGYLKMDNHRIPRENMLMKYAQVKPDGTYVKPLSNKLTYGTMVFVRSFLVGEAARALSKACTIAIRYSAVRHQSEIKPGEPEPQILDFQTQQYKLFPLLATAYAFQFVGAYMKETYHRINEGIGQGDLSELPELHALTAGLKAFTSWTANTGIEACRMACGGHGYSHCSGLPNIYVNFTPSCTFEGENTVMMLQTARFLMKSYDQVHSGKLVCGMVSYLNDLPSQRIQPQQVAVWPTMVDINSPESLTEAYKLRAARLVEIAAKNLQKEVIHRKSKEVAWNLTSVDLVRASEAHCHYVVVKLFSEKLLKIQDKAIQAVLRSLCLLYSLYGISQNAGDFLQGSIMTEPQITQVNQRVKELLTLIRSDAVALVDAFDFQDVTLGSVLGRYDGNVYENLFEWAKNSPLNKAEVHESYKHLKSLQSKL

AAK1 = biological target: T2, AAK1 (Homo sapiens, UniProt Q2M2I8); test: Kinobeads two-dose competition binding: AAK1; settings: for CATDS: sheet CATDS matrix 2, Gene Name AAK1; for potency estimated from few doses: read-out: Kinobeads Drugmatrix - all: apparent Kd, AAK1;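 as to all read-outs here: kinobeads competition pulldown from cell lysate, compound preincubated 45 min at 4 °C, bead-bound protein measured by label-free mass spectrometry against DMSO vehicle control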
T2 construct: to maximize the representation of endogenous proteins; endogenous in cells
T2 sequence (Q2M2I8 whole entry): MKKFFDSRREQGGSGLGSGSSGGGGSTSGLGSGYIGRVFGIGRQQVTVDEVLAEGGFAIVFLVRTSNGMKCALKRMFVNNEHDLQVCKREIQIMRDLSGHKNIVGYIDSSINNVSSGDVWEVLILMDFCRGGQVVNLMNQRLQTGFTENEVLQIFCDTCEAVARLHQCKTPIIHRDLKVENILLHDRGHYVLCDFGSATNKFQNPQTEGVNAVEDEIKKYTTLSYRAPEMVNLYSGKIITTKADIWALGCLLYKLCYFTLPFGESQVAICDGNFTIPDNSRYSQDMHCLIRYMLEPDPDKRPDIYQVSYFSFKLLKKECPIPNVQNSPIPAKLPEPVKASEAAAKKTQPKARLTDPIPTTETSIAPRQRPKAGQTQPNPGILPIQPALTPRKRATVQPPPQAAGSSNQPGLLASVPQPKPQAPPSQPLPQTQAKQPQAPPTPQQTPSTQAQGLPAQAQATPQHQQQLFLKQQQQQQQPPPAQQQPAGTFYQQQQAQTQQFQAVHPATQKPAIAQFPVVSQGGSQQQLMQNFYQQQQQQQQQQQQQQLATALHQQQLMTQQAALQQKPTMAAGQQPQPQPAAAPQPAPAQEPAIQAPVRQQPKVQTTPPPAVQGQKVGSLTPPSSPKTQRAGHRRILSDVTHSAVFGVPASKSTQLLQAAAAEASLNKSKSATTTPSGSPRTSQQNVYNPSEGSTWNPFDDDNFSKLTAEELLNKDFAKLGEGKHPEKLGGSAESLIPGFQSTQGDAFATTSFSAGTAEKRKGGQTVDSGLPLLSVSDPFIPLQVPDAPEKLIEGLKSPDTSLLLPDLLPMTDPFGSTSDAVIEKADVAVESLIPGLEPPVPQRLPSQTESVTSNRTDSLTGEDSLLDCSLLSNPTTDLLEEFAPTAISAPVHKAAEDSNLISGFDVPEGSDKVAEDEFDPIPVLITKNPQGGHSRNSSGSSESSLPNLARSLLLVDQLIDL

ABL1 = ABL1 (Homo sapiens, UniProt P00519); test: Kinobeads two-dose competition binding: ABL1; settings: sheet CATDS matrix 2; Gene Name ABL1
Sequence of ABL1 (P00519 28-1130 limits assumed): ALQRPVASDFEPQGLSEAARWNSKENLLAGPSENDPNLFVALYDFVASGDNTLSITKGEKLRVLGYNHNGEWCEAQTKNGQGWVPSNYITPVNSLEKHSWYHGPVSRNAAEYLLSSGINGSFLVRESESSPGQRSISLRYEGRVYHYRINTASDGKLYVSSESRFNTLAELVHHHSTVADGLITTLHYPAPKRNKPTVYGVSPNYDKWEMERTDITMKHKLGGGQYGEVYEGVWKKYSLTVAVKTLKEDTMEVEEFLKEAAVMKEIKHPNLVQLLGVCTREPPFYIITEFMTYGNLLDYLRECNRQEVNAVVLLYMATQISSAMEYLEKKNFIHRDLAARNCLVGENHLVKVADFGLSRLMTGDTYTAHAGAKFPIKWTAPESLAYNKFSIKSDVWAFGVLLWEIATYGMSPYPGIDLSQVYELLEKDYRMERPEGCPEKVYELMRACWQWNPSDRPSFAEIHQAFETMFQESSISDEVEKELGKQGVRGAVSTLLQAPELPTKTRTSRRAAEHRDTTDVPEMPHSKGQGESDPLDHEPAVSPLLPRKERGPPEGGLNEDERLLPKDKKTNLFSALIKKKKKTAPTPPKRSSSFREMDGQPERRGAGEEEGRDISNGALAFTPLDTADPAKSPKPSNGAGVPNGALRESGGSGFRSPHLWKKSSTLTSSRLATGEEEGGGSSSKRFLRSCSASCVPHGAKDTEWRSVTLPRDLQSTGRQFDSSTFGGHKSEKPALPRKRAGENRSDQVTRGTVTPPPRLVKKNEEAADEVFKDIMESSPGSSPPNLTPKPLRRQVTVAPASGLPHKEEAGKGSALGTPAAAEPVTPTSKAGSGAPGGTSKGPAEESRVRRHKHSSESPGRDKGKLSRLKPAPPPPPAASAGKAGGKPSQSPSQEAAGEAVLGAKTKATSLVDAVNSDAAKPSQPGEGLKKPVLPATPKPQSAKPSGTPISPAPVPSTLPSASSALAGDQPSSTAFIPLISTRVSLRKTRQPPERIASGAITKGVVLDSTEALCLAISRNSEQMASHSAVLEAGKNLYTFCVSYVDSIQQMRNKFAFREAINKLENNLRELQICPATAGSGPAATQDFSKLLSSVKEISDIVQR

ABL2 = biological target: T3, ABL2 (Homo sapiens, UniProt P42684); test: Kinobeads two-dose competition binding: ABL2; settings: sheet CATDS matrix 2; Gene Name ABL2
T3 construct: endogenous in cells
T3 sequence (P42684 whole entry): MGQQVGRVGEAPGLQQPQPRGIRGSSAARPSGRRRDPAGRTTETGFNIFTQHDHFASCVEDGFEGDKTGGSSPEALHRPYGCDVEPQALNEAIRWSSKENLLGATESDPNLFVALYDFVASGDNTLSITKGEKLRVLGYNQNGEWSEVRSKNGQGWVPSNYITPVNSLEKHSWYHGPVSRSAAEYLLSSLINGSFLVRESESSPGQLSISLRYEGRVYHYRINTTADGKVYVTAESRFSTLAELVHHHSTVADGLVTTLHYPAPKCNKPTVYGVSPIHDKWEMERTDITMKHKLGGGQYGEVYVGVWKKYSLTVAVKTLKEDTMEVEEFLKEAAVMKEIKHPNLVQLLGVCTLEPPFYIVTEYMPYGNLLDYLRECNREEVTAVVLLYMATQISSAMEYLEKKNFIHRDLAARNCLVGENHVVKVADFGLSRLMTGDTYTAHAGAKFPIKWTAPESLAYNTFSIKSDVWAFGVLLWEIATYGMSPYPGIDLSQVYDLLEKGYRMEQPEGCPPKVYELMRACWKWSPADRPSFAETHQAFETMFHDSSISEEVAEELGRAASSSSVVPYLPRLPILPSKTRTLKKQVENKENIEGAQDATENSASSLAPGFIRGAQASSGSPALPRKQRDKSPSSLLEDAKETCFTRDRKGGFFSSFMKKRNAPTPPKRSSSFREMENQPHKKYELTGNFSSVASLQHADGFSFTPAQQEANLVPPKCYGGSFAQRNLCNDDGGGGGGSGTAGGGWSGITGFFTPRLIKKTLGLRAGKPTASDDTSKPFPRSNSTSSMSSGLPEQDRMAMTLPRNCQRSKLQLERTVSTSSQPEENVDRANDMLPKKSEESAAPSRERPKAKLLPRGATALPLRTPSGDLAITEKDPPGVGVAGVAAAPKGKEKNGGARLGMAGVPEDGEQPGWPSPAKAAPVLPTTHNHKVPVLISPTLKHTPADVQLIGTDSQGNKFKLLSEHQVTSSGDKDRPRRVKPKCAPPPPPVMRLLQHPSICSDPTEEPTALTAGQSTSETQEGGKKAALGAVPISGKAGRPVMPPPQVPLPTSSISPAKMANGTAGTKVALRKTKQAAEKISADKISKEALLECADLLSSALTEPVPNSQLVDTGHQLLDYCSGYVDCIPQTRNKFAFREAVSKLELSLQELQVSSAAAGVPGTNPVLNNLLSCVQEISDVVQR

ACAD11 = biological target: T4, ACAD11 (Homo sapiens, UniProt Q709F0); test: Kinobeads two-dose competition binding: ACAD11; settings: sheet CATDS matrix 2; Gene Name ACAD11
T4 construct: endogenous in cells
T4 sequence (Q709F0 1-780): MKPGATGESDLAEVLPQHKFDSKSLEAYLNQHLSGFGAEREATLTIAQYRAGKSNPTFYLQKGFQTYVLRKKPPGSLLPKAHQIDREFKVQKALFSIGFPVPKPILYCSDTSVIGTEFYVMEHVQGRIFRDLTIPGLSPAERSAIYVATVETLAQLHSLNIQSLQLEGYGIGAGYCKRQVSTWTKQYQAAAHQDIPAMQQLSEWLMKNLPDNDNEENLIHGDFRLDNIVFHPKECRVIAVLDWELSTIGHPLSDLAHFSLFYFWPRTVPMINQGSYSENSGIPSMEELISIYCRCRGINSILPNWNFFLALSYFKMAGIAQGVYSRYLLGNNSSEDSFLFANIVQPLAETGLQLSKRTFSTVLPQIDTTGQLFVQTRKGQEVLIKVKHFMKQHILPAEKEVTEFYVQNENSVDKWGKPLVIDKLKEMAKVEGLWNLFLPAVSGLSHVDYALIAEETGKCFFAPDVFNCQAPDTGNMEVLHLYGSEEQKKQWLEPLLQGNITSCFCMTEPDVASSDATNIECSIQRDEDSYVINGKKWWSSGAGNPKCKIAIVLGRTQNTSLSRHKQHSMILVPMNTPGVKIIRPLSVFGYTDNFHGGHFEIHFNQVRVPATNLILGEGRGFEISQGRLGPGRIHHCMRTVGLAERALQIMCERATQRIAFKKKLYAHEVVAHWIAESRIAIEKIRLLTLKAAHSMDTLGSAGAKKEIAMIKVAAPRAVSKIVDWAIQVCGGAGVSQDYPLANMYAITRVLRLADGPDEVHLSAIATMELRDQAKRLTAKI

[1] = sheet "Kinobeads Drugmatrix - all", unit inferred, same values below 1000 recur in sheet "nanomolar"

CATDS (ACOX1) | CATDS (AAK1) | CATDS (ABL1) | CATDS (ABL2) | CATDS (ACAD11) | potency estimated from few doses (AAK1; [1]) | potency estimated from few doses (ACOX1; sheet "Kinobeads Drugmatrix -nanomolar" (only nanomolar interactions), read-out: Kinobeads Drugmatrix -nanomolar: apparent Kd, ACOX1) | Compound | potency estimated from few doses (AAK1)
0 | 0 | 0 | 0 | 0 |  |  | COc1ccc(Nc2nccc(N3CCC(NC(=O)c4cc5ccccc5s4)C3)n2)cc1 (stereo not drawn) [GSK1379738A] | 
0 | 0.1752 | 0 | 0 | 0 | 410 nM |  | COc1cc(Nc2nccc(N3CCC(NC(=O)c4cccc(NC(C)=O)c4)C3)n2)cc(OC)c1OC (stereo not drawn) [GSK1379754A] | 
0 | 0 | 0 | 0 | 0 |  |  | O=C(NCCNc1ccnc(Nc2ccc(F)cc2)n1)Nc1ccccc1F [GSK1379880A] | 
0 | 0 | 0 | 0 | 0 | > 1000 nM |  | COc1ccc(Nc2nccc(NCCNC(=O)Nc3cc(C)ccc3C)n2)cc1 [GSK1379899A] | 
0 | 0 | 0 | 0 | 0 |  |  | O=C(NCCNc1ccnc(NCc2ccc(F)cc2)n1)c1cc2ccccc2s1 [GSK1379944A] | 
0 | 0 | 0 | 0 | 0 |  |  | CCNCC(Cc1ccccc1)NC(=O)c1cc(Br)c(-c2ccnc3[nH]ccc23)s1 (stereo not drawn) [GSK1383280A] | 
0 | 0 | 0 | 0 | 0 |  |  | CC(C)NCC(Cc1ccccc1)NC(=O)c1cc(Br)c(-c2ccnc3[nH]ccc23)s1 (stereo not drawn) [GSK1383281A] | 
0 | 0 | 0 | 0 | 0 |  |  | Cc1ccc(NC(=O)c2cccc(C#N)c2)cc1-c1ccc(C(=O)Nc2ccncc2)cc1 [GSK1398463A] | 
0.2266 | 0 | 0 | 0 | 0 |  | 761 nM | Cc1ccc(NC(=O)c2ccc(Cl)cc2)cc1-c1ccc(C(=O)Nc2ccncc2)cc1 [GSK1398467A] | 
0 | 0 | 0 | 0 | 0 |  |  | Cc1ccc(NC(=O)Nc2ccccc2)cc1-c1ccc(C(=O)Nc2ccncc2)cc1 [GSK1398471A] | 
0 | 0.01281 | 0.0136 | 0.02269 | 0.01477 |  |  | Cc1ccc(NC(=O)Nc2ccccc2F)cc1-c1ccc(C(=O)Nc2ccncc2)cc1 [GSK1398477_KCGS] | 

The remaining lines, values behind:

Compound | CATDS (ACOX1) | CATDS (AAK1) | CATDS (ABL1) | CATDS (ABL2) | CATDS (ACAD11) | potency estimated from few doses (AAK1; [1]) | potency estimated from few doses (ACOX1; sheet "Kinobeads Drugmatrix -nanomolar" (only nanomolar interactions), read-out: Kinobeads Drugmatrix -nanomolar: apparent Kd, ACOX1) | potency estimated from few doses (AAK1)
COc1cc(Nc2nccc(N3CCC(NC(=O)c4cccc(C#N)c4)C3)n2)cc(OC)c1OC (stereo not drawn) [GSK1379751A] | 0 | 0.2095 | 0 | 0 | 0 | 786 nM |  | 
COc1cc(Nc2nccc(N3CCC(NC(=O)Nc4cccc(C(C)=O)c4)C3)n2)cc(OC)c1OC (stereo not drawn) [GSK1379753A] | 0 | 0 | 0 | 0 | 0 |  |  | 
COc1cc(Nc2nccc(N3CCC(NC(=O)C4COc5ccccc5O4)C3)n2)cc(OC)c1OC (stereo not drawn) [GSK1379761A] | 0 | 0 | 0 | 0 | 0 | > 1000 nM |  | 
COC(=O)c1cccc(NC(=O)NC2CCN(c3ccnc(Nc4cc(OC)c(OC)c(OC)c4)n3)C2)c1 (stereo not drawn) [GSK1379767A] | 0 | 0 | 0 | 0 | 0 | > 1000 nM |  | 
COc1cc(Nc2nccc(N3CCC(NS(=O)(=O)c4ccc(NC(C)=O)cc4)CC3)n2)cc(OC)c1OC [GSK1379825A] | 0 | 0 | 0 | 0 | 0 |  |  | 
COc1ccc(C[C@@H](CN)NC(=O)c2cc(Br)c(-c3ccnc4[nH]ccc34)s2)cc1 [GSK1389063A] | 0 | 0 | 0 | 0 | 0 |  |  | 
COc1cc(N2CCN(C(C)C)CC2)ccc1Nc1nc(Nc2ccc(F)cc2C(=O)NC[C@@H](O)CO)c2cc[nH]c2n1 [GSK1392956A] | 0 | 0 | 0 | 0 | 0 |  |  | 
NC[C@H](Cc1ccc(C(F)(F)F)cc1)NC(=O)c1cc(Br)c(-c2ccnc3[nH]ccc23)s1 [GSK1487252A] | 0 | 0 | 0 | 0 | 0 |  |  | 
COc1cc(N2CCN(C(C)C)CC2)ccc1Nc1nc(Nc2cccc3ncccc23)c2cc[nH]c2n1 [GSK1511931A] | 0 | 0 | 0 | 0 | 0 |  |  | 
NC[C@H](CC1CCCCC1)NC(=O)c1cc(Br)c(-c2ccnc3[nH]ccc23)s1 [GSK1581427A] | 0 | 0 | 0 | 0 | 0 |  |  | 
NC[C@H](CC1CCCCC1)NC(=O)c1ccc(-c2ccnc3[nH]ccc23)s1 [GSK1581428A] | 0 | 0.07203 | 0 | 0 | 0 |  |  | 54.5 nM
Nc1ncc(-c2ccc3nccc(-c4ccncc4)c3c2)cc1S(=O)(=O)N1CCOCC1 [GSK1627798A] | 0 | 0 | 0 | 0 | 0 |  |  | 
Cc1cc(N2CCC(NS(=O)(=O)c3ccc(F)cc3)CC2)nc(Nc2cccc(C#N)c2)n1 [GSK1653537A] | 0 | 0 | 0 | 0 | 0 |  |  | 
COc1ccc(S(=O)(=O)NC2CCN(c3cc(C)nc(Nc4cccc(C#N)c4)n3)CC2)cc1 [GSK1653539A] | 0 | 0 | 0 | 0 | 0 |  |  | 
Cc1occc1-c1nc(N)c(OC[C@@H](N)Cc2c[nH]c3ccccc23)cc1-c1cc2c(C)n[nH]c2cn1 [GSK1660450B] | 0 | 0 | 0 | 0 | 0 | > 1000 nM |  | 
CN(C)S(=O)(=O)c1cc(-c2ccc3nccc(-c4cccc(S(N)(=O)=O)c4)c3c2)cnc1N [GSK1669921A] | 0 | 0 | 0 | 0 | 0 |  |  | 
Nc1ncc(-c2ccc3nccc(-c4ccncc4)c3c2)cc1S(=O)(=O)N1CCCCC1 [GSK1693850A] | 0 | 0 | 0 | 0 | 0 |  |  | 
CCCN1CCC(Oc2cc(Nc3nc(Nc4cccc(F)c4C(N)=O)c4cc[nH]c4n3)c(OC)cc2Cl)CC1 [GSK1713088A] | 0 | 0 | 0 | 0 | 0 |  |  | 
